Measurements reported in patent US6534524B1, “Indazole compounds and pharmaceutical compositions for inhibiting protein kinases, and methods for their use” (Agouron Pharmaceuticals, Inc., priority 1999, dated 2003).
Read-outs that look alike come from different tables or passages of the source.

Columns and labels:
[1] = test system: retinal vasculature (VEGF dependent); test: In vivo assay of retinal vascular development in neonatal rats; conditions: P8 model; intravitreal; 5 mg/ml; vehicle PEG/water 50:50
[2] = target: unphosphorylated VEGF-R2Δ50 (FLVK) (Homo sapiens, UniProt P35968, DEL940-989/E990V); test: VEGF-R2 coupled spectrophotometric assay, unphosphorylated VEGF-R2Δ50 (FLVK); conditions: for Ki: FLVK Ki, Table 1; for inhibition at 0.05 µM: read-out: FLVK % inhibition
unphosphorylated VEGF-R2Δ50 (FLVK), sequence (P35968 with tags, fused parts or gaps DEL940-989/E990V limits assumed): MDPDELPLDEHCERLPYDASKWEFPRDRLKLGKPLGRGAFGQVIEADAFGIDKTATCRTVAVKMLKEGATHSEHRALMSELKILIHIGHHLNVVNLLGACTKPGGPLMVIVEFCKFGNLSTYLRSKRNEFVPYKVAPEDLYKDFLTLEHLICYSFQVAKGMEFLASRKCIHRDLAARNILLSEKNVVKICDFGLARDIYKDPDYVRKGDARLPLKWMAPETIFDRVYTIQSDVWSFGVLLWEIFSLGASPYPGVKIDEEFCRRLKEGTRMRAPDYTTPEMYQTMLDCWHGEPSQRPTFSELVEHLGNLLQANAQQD

[3] = test system: VEGF dependent retinal neovascularization; test: In vivo assay of retinal vascular development in neonatal rat model of retinopathy of prematurity; conditions: ROP model, intravitreal, vehicle PEG/water 70:30; for % inhibition: 1 mg/ml; for Initial Evaluation: 10 mg/ml
Experimental: In Vivo Assay of Retinal Vascular Development in Neonatal Rat Model of Retinopathy of Prematurity A second model of VEGF dependent retinal neovascularization was employed to evaluate the activities of this series of compounds. […] This alternating cycle of hyperoxia followed by hypoxia is repeated 7 times after which the animals are removed to room air (P14). Compounds are administered via intravitreal injection upon removal to room air and the animals are sacrificed 6 days later (P20). The isolated retinas are then isolated, stained mounted and analyzed as detail above in the development model. The effectiveness was also graded as is described for the development model.

[4] = Determination of inhibitor concentration in mouse plasma after intraperitoneal and oral dosing; type: in vivo
Procedure, shortened: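 Mice dosed intraperitoneally or orally; blood taken by ocular bleed at 0.5, 1 and 4 h and by intracardiac puncture at 7 h. Plasma extracted with ethyl acetate after internal standard and NaOH addition, analysed by HPLC or LC-MS against a mouse-plasma standard curve.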

[5] = Human liver microsome (HLM) assay; type: in vitro ADME; conditions: human liver microsomes, 5 μM test compound
Procedure, shortened: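 Compound metabolism in human liver microsomes measured in triplicate. Samples at 0 and 2 h centrifuged at 14000 g for 10 min and analysed by LC-MS.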

human FGF-R1 = human FGF-R1 (Homo sapiens, UniProt P11362, C488A/C584S/L457V); test: FGF-R spectrophotometric assay
human FGF-R1, sequence (P11362 456-766 L457V/C488A/C584S): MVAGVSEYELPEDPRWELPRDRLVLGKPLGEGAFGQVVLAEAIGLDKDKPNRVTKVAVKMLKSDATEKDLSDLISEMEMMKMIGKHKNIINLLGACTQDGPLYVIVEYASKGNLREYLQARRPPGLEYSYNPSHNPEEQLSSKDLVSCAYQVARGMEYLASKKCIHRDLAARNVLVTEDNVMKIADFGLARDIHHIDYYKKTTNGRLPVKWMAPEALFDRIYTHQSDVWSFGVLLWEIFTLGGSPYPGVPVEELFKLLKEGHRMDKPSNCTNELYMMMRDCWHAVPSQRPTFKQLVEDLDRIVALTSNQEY

[6] = test system: human umbilical vein endothelial cells (HUVEC); test: HUVEC proliferation assay (VEGF-stimulated, MTT); type: cell-based; conditions: Homo sapiens, HUVEC
[7] = test system: lung cancer cells (line MV522); test: Cancer cell proliferation (MV522) assay; type: cell-based
Experimental: Cancer Cell Proliferation (MV522) Assay
The protocol for assessing cellular proliferation in cancer cells is similar to that used for assessments in HUVEC cells. Two thousand lung cancer cells (line MV522, acquired from American Tissue Cultural Collection) were seeded in growth media (RPMI1640 medium supplemented with 2 mM glutamine and 10% FBS). Cells are allowed to attach for 1 day prior to addition of test agents and/or vehicles. Cells are treated simultaneously with the same test agents used in the HUVEC assay. Cellular proliferation is quantified by MTT dye reduction assay 72 hours after exposure to test agents. The total length of the assay is 4 days vs. 5 for HUVEC cells because MV522 cells are not exposed to starvation medium.

LCK tyrosine kinase = target: T1, LCK tyrosine kinase (Homo sapiens, UniProt P06239, C224D/P223M); test: LCK spectrophotometric assay; type: biochemical; conditions: Table 1; compound concentration 1 μM; read-out: Lck-P % inhibition
T1 construct: starting from amino acid residue 223 to the end of the protein at residue 509; made in house; host or cells: insect cells
T1 sequence (P06239 223-509 P223M/C224D): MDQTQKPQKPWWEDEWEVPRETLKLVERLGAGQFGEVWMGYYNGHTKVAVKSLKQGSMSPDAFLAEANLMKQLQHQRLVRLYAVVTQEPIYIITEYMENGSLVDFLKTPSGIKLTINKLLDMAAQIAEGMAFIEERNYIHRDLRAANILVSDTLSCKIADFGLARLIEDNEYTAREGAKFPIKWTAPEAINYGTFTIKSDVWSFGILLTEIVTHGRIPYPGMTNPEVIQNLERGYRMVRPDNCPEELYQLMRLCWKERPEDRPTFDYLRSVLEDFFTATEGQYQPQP
Experimental: The production of ADP from ATP that accompanies phosphoryl transfer was coupled to oxidation of NADH using phosphoenolpyruvate (PEP) and a system having pyruvate kinase (PK) and lactic dehydrogenase (LDH). The oxidation of NADH was monitored by following the decrease of absorbance at 340 nm (e340=6.22 cm^−1 mM^−1) using a Beckman DU 650 spectrophotometer. […] Ki values were determined by measuring enzyme activity in the presence of varying concentrations of test compounds. The data were analyzed using Enzyme Kinetic and Kaleidagraph software.
The spectrophotometric assay was carried out as described above for VEGF-R2, except for the following changes in concentration: LCK=60 nM, MgCl2=0 mM, poly(E4Y1)=20 mM.

[8] = IP, 25 mg/kg, vehicle PEG400:H2O pH 2.3 60:40
[9] = PO, 50 mg/kg, vehicle PEG400:H2O pH 2.3 60:40
[10] = female, IP, 25 mg/kg, vehicle PEG400:H2O pH 2.3 60:40, read-out: Cmin (7 hr conc.)
[11] = female, PO, 50 mg/kg, vehicle PEG400:H2O pH 2.3 60:40, read-out: Cmin (7 hr conc.)
[12] = IP, 25 mg/kg, vehicle PEG400:H2O pH 2.3 30:70
[13] = PO, 50 mg/kg, vehicle PEG400:H2O pH 2.3 30:70
[14] = female, IP, 25 mg/kg, vehicle PEG400:H2O pH 2.3 30:70, read-out: Cmin (7 hr conc.)
[15] = female, PO, 50 mg/kg, vehicle PEG400:H2O pH 2.3 30:70, read-out: Cmin (7 hr conc.)
[16] = PO, 10 mg/kg, vehicle PEG400:H2O pH 2.3 30:70
[17] = PO, 25 mg/kg, vehicle PEG400:H2O pH 2.3 30:70
[18] = female, PO, 25 mg/kg, vehicle PEG400:H2O pH 2.3 30:70, read-out: Cmin (7 hr conc.)
[19] = + albumin, read-out: HUVEC + albumin IC50

Compound: C/C=C/C(=O)Nc1cccc(C(=O)c2ccc3c(/C=C/c4ccccn4)n[nH]c3c2)c1 [Example 41(c), 6-(3-Crotonylamidobenzoyl)-3-E-[2-(pyridin-2-yl)ethenyl]-1H-indazole]
- Initial Evaluation [1]: ++ (two pluses being judged to be approximately 25-75% regression)
- Ki [2]: 0.22 nM
- % inhibition [3]: 16%
- Initial Evaluation [3]: +++ (three pluses give to retinas with near total regression (approximately 75% or greater))
- AUClast [4, 8]: 3397 ng·h/mL
- plasma half-life (T1/2) [4, 8]: 1.7 h
- AUClast [4, 9]: 3182 ng·h/mL
- plasma half-life (T1/2) [4, 9]: 2.6 h
- concentration at 7 h [4, 10]: 57 ng/mL
- concentration at 7 h [4, 11]: 104 ng/mL
- % remain (HLM, 2 h) [5]: 68%

Compound: CCn1nc(C)cc1C(=O)Nc1cc(C(=O)c2ccc3c(/C=C/c4ccccn4)n[nH]c3c2)ccc1C [Example 41(ee), 6-[3-((1-Ethyl-3-methyl-1H-pyrazol-5-yl)carboxanido)-4-methylbenzoyl]-3-E-[2-(pyridin-2-yl)ethenyl]-1H-indazole]
- Initial Evaluation [1]: +/++ var
- Ki [2]: 0.13 nM
- plasma half-life (T1/2) [4, 12]: 4.0 h
- plasma half-life (T1/2) [4, 13]: 3.4 h
- AUC(0-t) ([4]; female, IP, 25 mg/kg, vehicle PEG400:H2O pH 2.3 30:70): > 28400 ng·h/mL
- concentration at 7 h [4, 14]: 1670 ng/mL
- AUC(0-t) ([4]; female, PO, 50 mg/kg, vehicle PEG400:H2O pH 2.3 30:70): > 25300 ng·h/mL
- concentration at 7 h [4, 15]: 1210 ng/mL
- % remain (HLM, 2 h) [5]: 47%

Compound: CCn1nc(C)cc1C(=O)Nc1cccc(Oc2ccc3c(/C=C/c4ccccn4)n[nH]c3c2)c1 [Example 31(d), 6-[3-((1-Ethyl-3-methyl-1H-pyrazol-5-yl)carboxamido)phenoxy]-3-E-[2-(pyridin-2-yl)ethenyl]-1H-indazole]
- % inhibition [1]: 12%
- AUClast [4, 12]: 237784 ng·h/mL
- Cmax [4, 12]: 64.184 µg/mL
- plasma half-life (T1/2) [4, 12]: 5.3 h
- AUClast [4, 16]: 49120 ng·h/mL
- Cmax [4, 16]: 9.74 µg/mL
- plasma half-life (T1/2) [4, 16]: 3.1 h
- AUClast [4, 17]: 203860 ng·h/mL
- Cmax [4, 17]: 50.81 µg/mL
- plasma half-life (T1/2) [4, 17]: 1.9 h
- AUClast [4, 13]: 430683 ng·h/mL
- Cmax [4, 13]: 76.915 µg/mL
- plasma half-life (T1/2) [4, 13]: 39.3 h
- concentration at 7 h [4, 14]: 15100 ng/mL
- concentration at 7 hr ([4]; female, PO, 10 mg/kg, vehicle PEG400:H2O pH 2.3 30:70, read-out: Cmin (7 hr conc.)): 2020 ng/mL
- concentration at 7 h [4, 18]: 3800 ng/mL
- concentration at 7 h [4, 15]: 42500 ng/mL
- Ki (human FGF-R1): 14 nM
- % remain (HLM, 2 h) [5]: 110%

Compound: CCONC(=O)c1ccccc1Sc1ccc2c(/C=C/c3ccccn3)n[nH]c2c1 [Example 35(dd), 6-[2-(Ethoxycarbamoyl)phenylsulfanyl]-3-E-[2-(pyridin-2-yl)ethenyl]-1H-indazole]
- Initial Evaluation [1]: ++/+++ var
- Ki [2]: 0.6 nM
- Ki (human FGF-R1): 75 nM
- % remain (HLM, 2 h) [5]: 26%

Compound: O=C(c1cccc(NC(=O)c2cccc3[nH]ccc23)c1)c1ccc2c(/C=N/n3cccc3)n[nH]c2c1 [Example 45(a), 6-[3-(Indol-4-ylcarboxamido)benzoyl]-3-E-[N-(pyrrol-1-yl)iminomethyl]-1H-indazole]
- IC50 [6, 19]: ~15 nM
- IC50 ([6]; read-out: HUVEC IC50): 3.1 nM
- IC50 [7]: 3.5 µM

Compound: Cc1cc(C(=O)Nc2cc(Nc3ccc4c(/C=C/c5ccccn5)n[nH]c4c3)ccc2F)n(C)n1 [Example 49(a), 6-[N-(3-((1,3-Dimethyl-1H-pyrazol-5-yl)carboxamido)-4-fluoro-phenyl)amino]-3-E-[2-(pyridin-2-yl)ethenyl]-1H-indazole]
- inhibition at 1 µM (LCK tyrosine kinase): 11%
- IC50 [6, 19]: ~4 nM
- AUClast [4, 17]: 712 ng·h/mL
- concentration at 7 h [4, 18]: 15 ng/mL
- IC50 [7]: 8.4 µM
- Ki (human FGF-R1): 79 nM

Compound: CS(=O)(=O)c1ccc(C(=O)Nc2cccc(Oc3ccc4c(/C=C/c5ccccn5)n[nH]c4c3)c2)s1 [Example 31(c), 6-[3-((5-Methylsulfonylthien-2-yl)carboxanido)phenoxy]-3-E-[2-(pyridin-2-yl)ethenyl]-1H-indazole]
- Initial Evaluation [1]: +/++ var
- Ki [2]: < 0.1 nM
- % remain (HLM, 2 h) [5]: 87%

Compound: Cc1cc(C(=O)Nc2cc(C(=O)c3ccc4c(/C=C/c5ccccn5)n[nH]c4c3)c(C)cc2C)n(C)n1 [Example 41(mm), 6-[2,4-Dimethyl-5-((1,3-dimethyl-1H-pyrazol-5-yl)carboxamido)benzoyl]-3-E-[2-(pyridin-2-yl)ethenyl]-1H-indazole]
- Initial Evaluation [1]: + (one plus being detectable regression judged to be approximately 25 percent or less)
- AUClast [4, 17]: 2261 ng·h/mL
- Cmax [4, 17]: 0.852 µg/mL
- plasma half-life (T1/2) [4, 17]: 2.5 h
- concentration at 7 h [4, 18]: 127 ng/mL
- % remain (HLM, 2 h) [5]: 94%

Compound: C=CCONC(=O)c1ccccc1Sc1ccc2c(/C=C/c3ccccn3)n[nH]c2c1 [Example 35(j), 6-[2-(Allyloxycarbamoyl)phenylsulfanyl]-3-E-[2-(pyridin-2-yl)ethenyl]-1H-indazole]
- % inhibition [1]: 7%
- IC50 [6, 19]: 1.5 nM
- inhibition at 0.05 µM [2]: 99%
- AUClast [4, 12]: 9531 ng·h/mL
- plasma half-life (T1/2) [4, 12]: 1.3 h
- AUClast [4, 13]: 1328 ng·h/mL
- plasma half-life (T1/2) [4, 13]: 4.5 h
- concentration at 7 h [4, 14]: 52 ng/mL
- concentration at 7 h [4, 15]: 5 ng/mL
- % remain (HLM, 2 h) [5]: 5%

Compound: O=C(c1cccc(NC(=O)c2cccc3[nH]ccc23)c1)c1ccc2c(/C=C/c3ccccn3)n[nH]c2c1 [Example 41(d), 6-[3-(Indol-4-ylcarboxamido)benzoyl]-3-E-[2-(pyridin-2-yl)ethenyl]-1H-indazole]
- Ki [2]: 0.093 nM
- % inhibition [3]: 0%
- AUClast [4, 8]: 10324 ng·h/mL
- plasma half-life (T1/2) [4, 8]: 2.8 h
- AUClast [4, 9]: 7072 ng·h/mL
- plasma half-life (T1/2) [4, 9]: 1.5 h
- concentration at 7 h [4, 10]: 573 ng/mL
- concentration at 7 h [4, 11]: 150 ng/mL

Compound: O=C(Nc1cccc(C(=O)c2ccc3c(/C=N/n4cccc4)n[nH]c3c2)c1)c1ccccc1 [Example 45(b), 6-(3-Benzamidobenzoyl)-3-E-[N-(pyrrol-1-yl)iminomethyl]-1H-indazole]
- inhibition at 1 µM (LCK tyrosine kinase): 86%
- inhibition at 0.05 µM [2]: 99%
- Initial Evaluation [3]: ++ (two pluses being judged to be approximately 25-75% regression)
- AUClast [4, 8]: 11361 ng·h/mL
- plasma half-life (T1/2) [4, 8]: 2.0 h
- AUClast [4, 9]: 1636 ng·h/mL
- plasma half-life (T1/2) [4, 9]: 3.0 h
- IC50 [7]: 4.4 µM
- inhibition at 1 µM (human FGF-R1; read-out: FGF-P % inhibition, Table 1, compound concentration 1 μM): 79%
